# Assay results as given in patent US10172358B2, “Thiopicolinamide compounds with fungicidal activity” (Dow AgroSciences LLC, priority 2016, dated 2019).
# Like-named read-outs stand apart in the source and are kept apart here.
# Experiments:
# Zymoseptoria tritici = assay: Fungicidal activity: leaf blotch of wheat (SEPTTR), disease control on wheat seedlings; type: in vivo, Zymoseptoria tritici on wheat plants (variety Yuma); conditions: for pest or weed control at 100 ppm: high volume application; for pest or weed control at 121.5 g/ha: low volume application, 121.5 g/H
# Protocol: Evaluation of Fungicidal Activity: Leaf Blotch of Wheat (Zymoseptoria Tritici; Bayer Code […]) Technical grades of materials were dissolved in acetone, which were then mixed with nine volumes of water (H2O) containing 110 ppm Triton X-100. The fungicide solutions were applied onto wheat seedlings using an automated booth sprayer to run-off. All sprayed plants were allowed to air dry prior to further handling. All fungicides were evaluated using the aforementioned method for their activity vs. all target diseases, unless stated otherwise. Wheat leaf blotch and brown rust activity were also evaluated using track spray applications, in which case the fungicides were formulated as EC formulations, containing 0.1% Trycol 5941 in the spray solutions. Wheat plants (variety Yuma) were grown from seed in a greenhouse in 50% mineral soil/50% soil-less Metro mix until the first leaf was fully emerged, with 7-10 seedlings per pot. These plants were inoculated with an aqueous spore suspension of Zymoseptoria tritici either prior to or after fungicide treatments. After inoculation the plants were kept in 100% relative humidity (one day in a dark dew chamber followed by two to three days in a lighted dew chamber at 20° C.) to permit spores to germinate and infect the leaf. The plants were then transferred to a greenhouse set at 20° C. for disease to develop. When disease symptoms were fully expressed on the 1st leaves of untreated plants, infection levels were assessed on a scale of 0 to 100 percent disease severity. Percent disease control was calculated using the ratio of disease severity on treated plants relative to untreated plants.
# Puccinia triticina = assay: Fungicidal activity: wheat brown rust (PUCCRT), disease control on wheat seedlings; type: in vivo, Puccinia triticina on wheat plants (variety Yuma); conditions: for pest or weed control at 100 ppm: high volume application; for pest or weed control at 121.5 g/ha: low volume application, 121.5 g/H
# Protocol: Technical grades of materials were dissolved in acetone, which were then mixed with nine volumes of water (H2O) containing 110 ppm Triton X-100. The fungicide solutions were applied onto wheat seedlings using an automated booth sprayer to run-off. All sprayed plants were allowed to air dry prior to further handling. All fungicides were evaluated using the aforementioned method for their activity vs. all target diseases, unless stated otherwise. Wheat leaf blotch and brown rust activity were also evaluated using track spray applications, in which case the fungicides were formulated as EC formulations, containing 0.1% Trycol 5941 in the spray solutions. Evaluation of Fungicidal Activity: Wheat Brown Rust (Puccinia triticina; Synonym: Puccinia recondita f. Sp. Tritici; Bayer Code PUCCRT) Wheat plants (variety Yuma) were grown from seed in a greenhouse in 50% mineral soil/50% soil-less Metro mix until the first leaf was fully emerged, with 7-10 seedlings per pot. These plants were inoculated with an aqueous spore suspension of Puccinia triticina either prior to or after fungicide treatments. After inoculation the plants were kept in a dark dew room at 22° C. with 100% relative humidity overnight to permit spores to germinate and infect the leaf. The plants were then transferred to a greenhouse set at 24° C. for disease to develop. Fungicide formulation, application and disease assessment followed the procedures as described in the Example A. The results of the evalution are shown below in Table 4.
# [1] = 24 h, 1 day protectant, read-out: SEPTTR 1DP disease control, HV activity at 100 ppm
# [2] = 72 h, 3 day curative, read-out: SEPTTR 3DC disease control, HV activity at 100 ppm
# [3] = 24 h, 1 day protectant, read-out: PUCCRT 1DP disease control, HV activity at 100 ppm
# [4] = 72 h, 3 day curative, read-out: PUCCRT 3DC disease control, HV activity at 100 ppm
# [5] = 24 h, 1 day protectant, read-out: SEPTTR 1DP disease control, LV activity at 121.5 g/H
# [6] = 72 h, 3 day curative, read-out: SEPTTR 3DC disease control, LV activity at 121.5 g/H
# [7] = 24 h, 1 day protectant, read-out: PUCCRT 1DP disease control, LV activity at 121.5 g/H
# [8] = 72 h, 3 day curative, read-out: PUCCRT 3DC disease control, LV activity at 121.5 g/H
Structure (SMILES),pest or weed control at 100 ppm (Zymoseptoria tritici; [1]) [%],pest or weed control at 100 ppm (Zymoseptoria tritici; [2]) [%],pest or weed control at 100 ppm (Puccinia triticina; [3]) [%],pest or weed control at 100 ppm (Puccinia triticina; [4]) [%],pest or weed control at 121.5 g/ha (Zymoseptoria tritici; [5]) [%],pest or weed control at 121.5 g/ha (Zymoseptoria tritici; [6]) [%],pest or weed control at 121.5 g/ha (Puccinia triticina; [7]) [%],pest or weed control at 121.5 g/ha (Puccinia triticina; [8]) [%]
C=CC[C@@H](Oc1ccccc1)[C@H](C)OC(=O)[C@H](C)NC(=S)c1nccc(OC)c1O [Compound 16],> 80,≤ 80,> 80,> 80,,,,
COc1ccnc(C(=S)N[C@@H](C)C(=O)O[C@@H](C)[C@H](Oc2ccc(Cl)cc2)C(C)C)c1O [Compound 17],≤ 80,,> 80,,,,,
COc1cc(F)ccc1[C@H](c1ccc(C)cc1)[C@H](C)OC(=O)[C@H](C)NC(=S)c1nccc(OC)c1O [Compound 18],> 80,> 80,> 80,> 80,,,,
COc1ccnc(C(=S)N[C@@H](C)C(=O)O[C@H](C(C)C)[C@H](C)Oc2ccccc2)c1O [Compound 19],> 80,,> 80,> 80,,,,
COc1ccnc(C(=S)N[C@@H](C)C(=O)O[C@@H](C)C(c2ccc(C)cc2)c2ccc(C)cc2)c1O [Compound 20],> 80,> 80,> 80,≤ 80,,,,
"COc1ccnc(C(=S)N[C@@H](C)C(=O)O[C@@H](C)[C@H](Oc2ccccc2Cl)c2ccccc2)c1O [Compound 22, (1R,2S)-1-(2-chlorophenoxy)-1-phenylpropan-2-yl (3-hydroxy-4-methoxypyridine-2-carbonothioyl)-L-alaninate]",> 80,≤ 80,> 80,≤ 80,,,,
COc1ccnc(C(=S)N[C@@H](C)C(=O)O[C@@H](C)C(c2ccc(F)cc2)c2ccc(F)cc2)c1O [Compound 39],> 80,> 80,≤ 80,≤ 80,,,,
CCCCC[C@@H](OC(=O)[C@H](C)NC(=S)c1nccc(OC)c1CC(C)=O)[C@H](C)Oc1ccccc1 [Compound 41],,,,,> 80,> 80,> 80,> 80
CCCCC[C@H](OC(=O)[C@H](C)NC(=S)c1nccc(OC)c1OC(C)=O)[C@@H](C)Oc1ccccc1 [Compound 42],,,,,≤ 80,,≤ 80,≤ 80
COc1ccnc(C(=S)N[C@@H](C)C(=O)O[C@@H](C)[C@H](Oc2ccc(Cl)cc2)C(C)C)c1OC(C)=O [Compound 43],,,,,> 80,≤ 80,> 80,> 80
COc1cc(F)ccc1[C@H](c1ccccc1)[C@H](C)OC(=O)[C@H](C)NC(=S)c1nccc(OC)c1OC(C)=O [Compound 44],,,,,> 80,> 80,> 80,≤ 80
COc1cc(F)ccc1[C@H](c1ccc(C)cc1)[C@H](C)OC(=O)[C@H](C)NC(=S)c1nccc(OC)c1OC(C)=O [Compound 45],,,,,> 80,> 80,> 80,> 80
COc1ccnc(C(=S)N[C@@H](C)C(=O)O[C@@H](C)[C@@H](c2ccc(C)cc2)c2ccc(F)cc2C)c1OC(C)=O [Compound 46],,,,,> 80,> 80,> 80,> 80
COc1ccnc(C(=S)N[C@@H](C)C(=O)O[C@@H](C)C(c2ccc(Cl)cc2)c2ccc(Cl)cc2)c1OC(C)=O [Compound 47],,,,,> 80,> 80,> 80,≤ 80
COc1ccnc(C(=S)N[C@@H](C)C(=O)O[C@@H](C)C(c2ccc(C)cc2C)c2ccc(C)cc2C)c1OC(C)=O [Compound 48],,,,,> 80,> 80,> 80,
COc1ccnc(C(=S)N[C@@H](C)C(=O)O[C@@H](C)[C@H](Oc2ccc(Cl)cc2Cl)c2ccccc2)c1OC(C)=O [Compound 49],,,,,≤ 80,,≤ 80,
COc1ccnc(C(=S)N[C@@H](C)C(=O)O[C@@H](C)C(c2ccc(C)cc2)c2ccc(C)cc2)c1OC(C)=O [Compound 50],,,,,> 80,> 80,> 80,> 80
COc1ccnc(C(=S)N[C@@H](C)C(=O)O[C@@H](C)[C@@H](c2ccccc2)c2ccc(F)cc2)c1OC(C)=O [Compound 51],,,,,> 80,> 80,> 80,≤ 80
COc1cc(Cl)ccc1C(c1ccc(Cl)cc1OC)[C@H](C)OC(=O)[C@H](C)NC(=S)c1nccc(OC)c1OC(C)=O [Compound 52],,,,,> 80,> 80,> 80,≤ 80
COc1ccc(C(c2ccc(OC)cc2F)[C@H](C)OC(=O)[C@H](C)NC(=S)c2nccc(OC)c2OC(C)=O)c(F)c1 [Compound 53],,,,,> 80,> 80,> 80,≤ 80
COc1ccccc1C(c1ccccc1OC)[C@H](C)OC(=O)[C@H](C)NC(=S)c1nccc(OC)c1OC(C)=O [Compound 54],,,,,> 80,> 80,> 80,
COc1ccnc(C(=S)N[C@@H](C)C(=O)O[C@H](C(C)C)[C@H](C)Oc2ccc(C)cc2)c1OC(C)=O [Compound 56],,,,,≤ 80,≤ 80,> 80,> 80
"COc1ccnc(C(=S)N[C@@H](C)C(=O)O[C@@H](C)[C@H](Oc2ccccc2Cl)c2ccccc2)c1OC(C)=O [Compound 57, (1R,2S)-1-(2-chlorophenoxy)-1-phenylpropan-2-yl (3-acetoxy-4-methoxypyridine-2-carbonothioyl)-L-alaninate]",,,,,> 80,> 80,> 80,≤ 80
COc1ccc(O[C@@H](C)[C@H](OC(=O)[C@H](C)NC(=S)c2nccc(OC)c2OC(C)=O)C(C)C)cc1 [Compound 58],,,,,> 80,> 80,> 80,> 80
COc1ccnc(C(=S)N[C@H](C)C(=O)O[C@@H](C)C(c2ccc(F)cc2)c2ccc(F)cc2)c1OC(C)=O [Compound 59],,,,,> 80,,≤ 80,≤ 80
C=CC[C@@H](Oc1ccccc1)[C@H](C)OC(=O)[C@H](C)NC(=S)c1nccc(OC)c1OC(C)=O [Compound 60],,,,,≤ 80,≤ 80,> 80,> 80
